Measurements: patent US7666670B2, “Animal model for the fast identification of pharmaceutical active compounds in vivo” (Janssen Pharmaceutica N.V., priority 2003, dated 2010)
“And” between values parts separate entries of the source, which are not always exact repeats. Identical values can stand only once. *1 amine or outer side, *2 acyl side, *3 side chain or, on linkers, in order; H or OH if unused. Where a SMILES comes first, the peptide text is derived from it. Bridges are numbered along the chain shown (N, C = ends). Roman numbers before positions name the chains, in order. [ ]: non-standard residue; d: D form. Actinocin(9to1) = Cc1c2oc3c(C)ccc(C(=O)[*:1])c3nc-2c(C(=O)[*:2])c(N)c1=O; NMeV = CN[C@H](C(=O)O)C(C)C; Sar = CNCC(=O)O

Key:
[1] = tested on: p21 1300 bp promoter fragment; assay: Induction of p21 1300 bp promoter fragment (ZsGreen fluorescence) in pGL3-basic-ZsGreen-1300 transfected A2780 clones; format: cell-based, human; details: for Fold induction (fluorescence after induction divided by fluorescence of DMSO treated cells) / Activation of the 1300 bp fragment of the p21 promoter by DNA damaging agents: 24 h; for Fold induction (fluorescence after induction divided by fluorescence of DMSO treated cells): Fluoroskan; for Fold induction: first screen of 80 clones, the two clones measurable with Fluoroskan; for Activation of the 1300 bp fragment of the p21 promoter by DNA damaging agents: dose response, clones 1 and 5 (FIG. 1)
Protocol: A2780 cells were plated into a 6-well plate at a density of 2×10^5 cells, incubated for 24 hours, and transfected with 2 ug of pGL3-basic-ZsGreen-1300 and 0.2 ug of pSV2neo vector by using Lipofectamine 2000 (Invitrogen, Brussels, Belgium) as described by manufacturer. The transfected cells were selected for 10 days with G418 (Gibco-BRL, Gaithersburg, Md.) and single cell suspensions were grown. After three weeks, 80 single clones were obtained.
The A2780 transfected pool and the selected 80 clones were expanded and seeded at 10000 cells per well into 96-well plates. 24 hours after seeding, the cells were treated for an additional 24 hours with targeted compounds (affecting sp1 sites in the proximal p21 promoter region) or DNA damaging agents (affecting p53 responsive elements). Subsequently, cells were fixed with 4% PFA for 30′ and counterstained with Hoechst dye. The p21 promoter activation leading to ZsGreen production and thus fluorescence, was monitored by the Ascent Fluoroskan (Thermo Labsystems, Brussels, Belgium) and by fluorescence microscope (Zeiss).

p53RE_tk in HCT116 cells = assay: Induction of p53RE_tk activity (ZsGreen fluorescence) in transfected HCT116 clones; format: cell-based; details: 24 h
Protocol: (§1) A2780 cells and HCT116 cells were plated into a 6-well plate at a density of 4×10^5 cells, incubated for 24 hours, and transfected with 2 ug of p53RE_TK/pGL3-basic-ZsGreen and 0.2 ug of pMC1-neo-Poly A vector by using Lipofectamine and Plus Reagent (Invitrogen, Brussels, Belgium) as described by manufacturer. The transfected cells were selected for 16 days with G418 (Gibco-BRL, Gaithersburg, Md.) and single cell suspensions were grown. After three weeks, 60 single clones were obtained from the transfected HCT116 cells and 40 single clones were obtained from the transfected A2780 cells.
(§2) The A2780 and the HCT116 transfected pool and the selected clones were expanded and seeded at 20000 cells per well into 96-well plates. 24 hours after seeding, the cells were treated for an additional 24 hours with DNA damaging agents (affecting p53 responsive elements). The p53RE_tk activation leading to ZsGreen production and thus fluorescence, was monitored by the Ascent Fluoroskan (Thermo Labsystems, Brussels, Belgium) and by fluorescence microscope (Zeiss).

p53RE_tk in A2780 cells = assay: Induction of p53RE_tk activity (ZsGreen fluorescence) in transfected A2780 clones; format: cell-based, human; details: 24 h, Fluoroskan; for Fold induction (fluorescence after induction divided by fluorescence of DMSO treated cells): A2780 clone 36, 10 ng/ml
Protocol: as §1, §2

tumor = details: PK/PD studies; cited from earlier work
[2] = tested on: pGL3-basic-ZsGreen-1300 transfected A2780 xenograft; assay: In vivo xenograft fluorescence, Automated Whole Body Imaging System; design: species or system nude mice
Protocol: The selected clone was injected subcutaneous (10^7 cells/200 μl) into the flank of nude mice and a calliper measurable tumor was obtained after 12 days. From day 12 on, animals were orally dosed daily during 6 days with solvent, 20 mpk Mitsui (a.k.a. MS-275—Shering—Registry Number 209783-80-2) or 40 mpk compound X (10, 10 and 4 animals respectively). Tumors were evaluated for fluorescence by the in-house developed Automated Whole Body Imaging System (Fluorescent stereomicroscope type Olympus® SZX12 equipped with a GFP filter and coupled to a CCD camera type JAI® CV-M90 controlled by a software package based on the IMAQ Vision Software from National Instruments®).

[3] = 20 mpk orally daily for 6 days from day 12, clone 1 and 5 xenograft, nude mice

With CC(/C=C/C(=O)NO)=C\[C@@H](C)C(=O)c1ccc(N(C)C)cc1 [TSA, trichostatin A] as the compound, how does the “Fold induction (fluorescence after induction divided by fluorescence of DMSO treated cells)” value ([1]; clone 1, 10^−7M) read?
Its value is 5 fold.

And the Fold induction ([1]; 10^−7, 24 h)?
Its Fold induction is 5 fold.

And the “ZsGreen production in pGL3-basic-ZsGreen-1300 transfected A2780 cells in vitro” value [1]?
The value was “induce ZsGreen production”.

What does the source list for CC[C@@]1(O)C(=O)OCc2c1cc1n(c2=O)Cc2cc3ccccc3nc2-1 [Camptothecin]?
Activation of the 1300 bp fragment of the p21 promoter by DNA damaging agents [1]: not able to activate; Activation of the 1300 bp fragment of the p21 promoter by DNA damaging agents ([1]; listed as Campthotecin): non-responsivness

For Cc1c2oc3c(C)ccc(C(=O)N[C@@H]4C(=O)N[C@H](C(C)C)C(=O)N5CCC[C@H]5C(=O)N(C)CC(=O)N(C)[C@@H](C(C)C)C(=O)O[C@@H]4C)c3nc-2c(C(=O)N[C@@H]2C(=O)N[C@H](C(C)C)C(=O)N3CCC[C@H]3C(=O)N(C)CC(=O)N(C)[C@@H](C(C)C)C(=O)O[C@@H]2C)c(N)c1=O [actinomycin D] (I: T[dV]P[Sar][NMeV] / II: T[dV]P[Sar][NMeV]; ester I:1-I:C, II:1-II:C; linker I:N-II:N via Actinocin(9to1)), which Induction of fluorescence (p53RE_tk in HCT116 cells; HCT116 clones 5 and 36, 10 ng/ml) is on record?
Its Induction of fluorescence is “strong induction factor”.

And the Induction of fluorescence (p53RE_tk in HCT116 cells; the 6 responding HCT116 clones, 10 ng/ml, Fluoroskan)?
Its Induction of fluorescence is “at least a two fold induction”.

And the “Fold induction (fluorescence after induction divided by fluorescence of DMSO treated cells)” value (p53RE_tk in A2780 cells)?
The value was 2 fold.

What about the “Fold induction (fluorescence after induction divided by fluorescence of DMSO treated cells)” value (p53RE_tk in A2780 cells; listed as actinomycinD) of the same compound?
Its value is “strong induction factor”.

And the Induction of fluorescence (p53RE_tk in A2780 cells; the 2 responding A2780 clones, 10 ng/ml)?
The Induction of fluorescence was “at least a two fold induction”.

Which “Activation of the 1300 bp fragment of the p21 promoter by DNA damaging agents” value [1] does the source give for COc1cccc2c1C(=O)c1c(O)c3c(c(O)c1C2=O)C[C@@](O)(C(=O)CO)C[C@@H]3O[C@H]1C[C@H](N)[C@H](O)[C@H](C)O1 [Doxorubicin] here?
The value was “not able to activate”.

And the “Activation of the 1300 bp fragment of the p21 promoter by DNA damaging agents” value ([1]; listed as doxorubicin)?
The value was “non-responsivness”.

What does the source list for Nc1ccccc1NC(=O)c1ccc(CNC(=O)OCc2cccnc2)cc1 [Mitsui]?
Compound reaches the tumor (tumor): can reach the tumor; Concentration reached in the tumor (tumor): high enough to stop the tumor from growing; Time after administration of the first dose at which induction of ZsGreen was very clear [2, 3]: 3 days; Time after starting the treatment at which ZsGreen induction reached a plateau [2, 3]: 5 days; Basal ZsGreen expression and induction, detection by Automated Whole Body Imaging System ([2]; 20 mpk, clone 2 and 3 xenograft, nude mice): too low; Induction of fluorescence in the xenograft ([2]; after 4 days of treatment): induces fluorescence; Fold induction (fluorescence after induction divided by fluorescence of DMSO treated cells) ([1]; clone 1, 10^−6M): 2 fold and 1.8 fold; Fold induction ([1]; 10^−6, 24 h): 1.2-1.5 fold; ZsGreen production in pGL3-basic-ZsGreen-1300 transfected A2780 cells in vitro [1]: induce ZsGreen production

For O=C(CCCCCCC(=O)Nc1ccccc1)NO [SAHA, suberoylanilide hydroxamic acid], which “ZsGreen production in pGL3-basic-ZsGreen-1300 transfected A2780 cells in vitro” value [1] is on record?
Its value is “induce ZsGreen production”.

Which results are given for Bleomycin?
Activation of the 1300 bp fragment of the p21 promoter by DNA damaging agents [1]: not able to activate; Activation of the 1300 bp fragment of the p21 promoter by DNA damaging agents ([1]; listed as bleomycin): non-responsivness
